Experimental data from patent publication US6204293A, “Inhibitors of protein isoprenyl transferases” (University of Pittsburgh, priority 1998, dated 2001).
Counter-ions that a name gives are not always drawn.

These molecules were tested against T1, Rat brain protein farnesyltransferase (Rattus norvegicus, UniProt Q02293+Q04631) (assay: % inhibition of farnesylation, scintillation proximity assay with biotin-K Ras B fragment). Settings: Table 1; 1 × 10^-5 M.
T1 construct: Rat brain protein farnesyltransferase activity is measured; from tissue; host or cells: rat brain
T1 sequence (Q02293 whole entry, the tested form may be a part, one chain of several): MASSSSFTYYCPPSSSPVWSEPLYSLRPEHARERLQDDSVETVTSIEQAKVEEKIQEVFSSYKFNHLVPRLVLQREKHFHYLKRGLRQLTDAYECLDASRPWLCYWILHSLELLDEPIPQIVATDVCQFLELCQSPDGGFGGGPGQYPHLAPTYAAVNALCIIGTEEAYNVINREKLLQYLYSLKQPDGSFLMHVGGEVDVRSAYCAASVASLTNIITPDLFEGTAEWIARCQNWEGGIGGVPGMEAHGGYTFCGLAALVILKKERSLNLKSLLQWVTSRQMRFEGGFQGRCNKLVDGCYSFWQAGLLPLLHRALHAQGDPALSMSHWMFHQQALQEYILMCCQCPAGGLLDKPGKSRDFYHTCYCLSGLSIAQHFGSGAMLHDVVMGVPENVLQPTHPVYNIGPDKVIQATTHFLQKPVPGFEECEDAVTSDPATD
Type: biochemical
How it was run: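 Scintillation proximity read-out of farnesylation, using a biotinylated K Ras B fragment (0.1 mM final) in place of biotin-lamin. Enzyme purified from rat brain; results given as % inhibition.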

% inhibition at 1 × 10^-5 M	SMILES
44%	CSCC[C@H](NC(=O)c1ccc(NC(=O)CCN)cc1-c1ccccc1)C(=O)O [Example 750]
58%	CSCC[C@H](NC(=O)c1ccc(NC(=O)c2cccc(N(C)C)c2)cc1-c1ccccc1)C(=O)O [Example 752]
55%	COc1cc(Cl)ccc1C(=O)Nc1ccc(C(=O)N[C@@H](CCSC)C(=O)O)c(-c2ccccc2)c1 [Example 753]
40%	COc1ccc(Br)c(C(=O)Nc2ccc(C(=O)N[C@@H](CCSC)C(=O)O)c(-c3ccccc3)c2)c1 [Example 754]
47%	COc1cc(I)c(C(=O)Nc2ccc(C(=O)N[C@@H](CCSC)C(=O)O)c(-c3ccccc3)c2)cc1OC [Example 756]
58%	CSCC[C@H](NC(=O)c1ccc(NC(=O)Cc2ccccc2[N+](=O)[O-])cc1-c1ccccc1)C(=O)O [Example 757]

Same assay, conditions: Table 2; 1 × 10^-6 M

SMILES	% inhibition at 1 × 10^-6 M
CCSC[C@H](CC1CCCCC1)NCc1ccc(C(=O)N[C@@H](CCSC)C(=O)OCOC(=O)C(C)(C)C)c(-c2ccccc2C)c1 [Example 764]	88%
CCSC[C@H](CC1CCCCC1)NCc1ccc(C(=O)N(C)[C@@H](CCSC)C(=O)O)c(-c2ccccc2C)c1 [Example 765]	76%
CSCC[C@H](NC(=O)c1ccc(S(=O)(=O)N(Cc2ccccc2)c2ccccc2)cc1-c1ccccc1C)C(=O)[O-].[Li+] [Example 768]	67%
CSCC[C@H](NC(=O)c1ccc(S(=O)(=O)NCCC2CCCCC2)cc1-c1ccccc1C)C(=O)O [Example 772]	79%
CSCC[C@H](NC(=O)c1ccc(S(=O)(=O)NC2CCN(Cc3ccccc3)CC2)cc1-c1ccccc1C)C(=O)O [Example 773]	41%
CSCC[C@H](NC(=O)c1ccc(S(=O)(=O)NCCN2CCCCC2)cc1-c1ccccc1C)C(=O)O [Example 774]	48%
CSCC[C@H](NC(=O)c1ccc(S(=O)(=O)NCCN2CCOCC2)cc1-c1ccccc1C)C(=O)O [Example 775]	32%
COc1ccc(CCNS(=O)(=O)c2ccc(C(=O)N[C@@H](CCSC)C(=O)O)c(-c3ccccc3C)c2)cc1OC [Example 776]	36%
CSCC[C@H](NC(=O)c1ccc(S(=O)(=O)NCCCn2ccnc2)cc1-c1ccccc1C)C(=O)O [Example 777]	83%
CSCC[C@H](NC(=O)c1ccc(CN(Cc2ccc(C(F)(F)F)cc2)c2ccccc2)cc1-c1ccccc1C)C(=O)O [Example 782]	96%
CSCC[C@H](NC(=O)c1ccc(-c2ccccc2-c2ccccc2)cc1-c1ccccc1C)C(=O)[O-].[Li+] [Example 786]	34%
CSCC[C@H](NC(=O)c1ccc(-c2cccc(-c3ccccc3)c2)cc1-c1ccccc1C)C(=O)[O-].[Li+] [Example 787]	70%
CSCC[C@H](NC(=O)c1ccc(-c2ccc(-c3ccccc3)cc2)cc1-c1ccccc1C)C(=O)[O-].[Li+] [Example 788]	44%
CSCC[C@H](NC(=O)c1ccc(C[C@H]2CC[C@@H](c3ccccc3)CC2)cc1-c1ccccc1C)C(=O)O [Example 790]	88%
CSCC[C@H](NC(=O)c1ccc(CCc2cccc(-c3ccccc3)c2)cc1-c1ccccc1C)C(=O)[O-].[Li+] [Example 793]	94%
CCOC(=O)N1CCC(NCc2ccc(C(=O)N[C@@H](CCSC)C(=O)[O-])c(-c3ccccc3C)c2)CC1.[Li+] [Example 806]	72%
CSCC[C@H](NC(=O)c1ccc(/C=C/c2ccc(Oc3ccccc3)nn2)cc1-c1ccccc1C)C(=O)O [Example 810]	89%
CSCC[C@H](NC(=O)c1ccc(/C=C/c2cnc(Oc3ccccc3)cn2)cc1-c1ccccc1C)C(=O)O [Example 812]	94%
CSCC[C@H](NC(=O)c1ccc(CCc2cnc(Oc3ccccc3)cn2)cc1-c1ccccc1C)C(=O)O [Example 813]	95%

Now from value to molecule:

% inhibition at 1 × 10^-6 M	SMILES
95%	CSCC[C@H](NC(=O)c1ccc(CN[C@H](CO)Cc2ccccc2)cc1-c1ccccc1C)C(=O)O [Example 727]
84%	CNCC(=O)Nc1ccc(C(=O)N[C@@H](CCSC)C(=O)O)c(-c2ccccc2)c1 [Example 749]
32%	CSCC[C@H](NC(=O)c1ccc(NC(=O)C[C@H]2C[C@@H](C(C)=O)C2(C)C)cc1-c1ccccc1)C(=O)O [Example 751]
53%	CSCC[C@H](NC(=O)c1ccc(/C=C/c2ccccc2)cc1-c1ccccc1C)C(=O)O [Example 791]

Same assay, conditions: Table 3; 1 × 10^-7 M

SMILES	% inhibition at 1 × 10^-7 M
CSCC[C@H](NC(=O)c1ccc(C=Cc2cncs2)cc1-c1ccccc1C)C(=O)[O-].[Li+] [Example 785]	96%
CSCC[C@H](NC(=O)c1ccc(CCc2ccc(Oc3ccccc3)nn2)cc1-c1ccccc1C)C(=O)O [Example 811]	85%

Other lines, results leading:

% inhibition at 1 × 10^-7 M	SMILES
56%	CSCC[C@H](NC(=O)c1ccc(NC(=O)CN)cc1-c1ccccc1)C(=O)O [Example 748]
90%	CSCC[C@H](NC(=O)c1ccc(CN(c2ccccc2)S(=O)(=O)c2ccccc2)cc1-c1ccccc1C)C(=O)O [Example 769]
91%	CSCC[C@H](NC(=O)c1ccc(CN(c2ccccc2)S(=O)(=O)c2ccc(C)cc2)cc1-c1ccccc1C)C(=O)O [Example 770]
91%	CSCC[C@H](NC(=O)c1ccc(CN(Cc2ccc(Cl)cc2)c2ccccc2)cc1-c1ccccc1C)C(=O)O [Example 781]

Same assay, conditions: Table 4; 1 × 10^-8 M

SMILES	% inhibition at 1 × 10^-8 M
CSCC[C@H](NC(=O)c1ccc(CN[C@H](CSC2CCCCC2)CC2CCCCC2)cc1-c1ccccc1C)C(=O)O [Example 766]	95%
CSCC[C@H](NC(=O)c1ccc(CN[C@H](CSc2ccccc2C)CC2CCCCC2)cc1-c1ccccc1C)C(=O)O [Example 767]	97%
CSCC[C@H](NC(=O)c1ccc(CN(c2ccccc2)S(=O)(=O)c2ccc(C(F)(F)F)cc2)cc1-c1ccccc1C)C(=O)O [Example 780]	71%

More lines, now with the values ahead:

% inhibition at 1 × 10^-8 M	SMILES
84%	CSCC[C@H](NC(=O)c1ccc(CN(CCC2CCCCC2)C(=O)c2ccccc2)cc1-c1ccccc1C)C(=O)O [Example 762]
70%	COc1cccc(CN(Cc2ccc(C(=O)N[C@@H](CCSC)C(=O)O)c(-c3ccccc3C)c2)c2ccccc2)c1 [Example 779]

Same assay, conditions: read-out: % inhibition at 1 × 10^-6 M

SMILES	inhibition at 1 µM
CSCC[C@H](NC(=O)c1ccc(COC2CCN(C(=O)OC(C)(C)C)CC2)cc1-c1ccccc1C)C(=O)O [Example 808, N-[4-(1-t-butoxycarbonylpiperidin-4-yloxymethyl)-2-(2-methylphenyl)benzoyl]methionine lithium salt]	88%
CSCC[C@H](NC(=O)c1ccc(COC2(Cc3ccccc3)CCN(C(=O)OC(C)(C)C)CC2)cc1-c1ccccc1C)C(=O)O [Example 809, N-[4-(1-t-butoxycarbonyl-4-benzylpiperidin-4-yloxymethyl)-2-(2-methylphenyl)benzoyl]methionine lithium salt]	78%
CSCC[C@H](NC(=O)c1ccc(COC2(c3ccccc3)CCN(C(=O)OC(C)(C)C)CC2)cc1-c1ccccc1C)C(=O)O [Example 816, N-[4-(1-t-butoxycarbonyl-4-phenylpiperidin-4-yloxymethyl)-2-(2-methylphenyl)benzoyl]methionine lithium salt]	87%

Same assay, conditions: read-out: % inhibition at 1 × 10^-6 M; Table 2; 1 × 10^-6 M

inhibition at 1 µM	SMILES
84%	CSCC[C@H](NC(=O)c1ccc(CSc2nc(O)cc(Cc3ccccc3)n2)cc1-c1ccccc1C)C(=O)O [Example 744]
90%	CSCC[C@H](NC(=O)c1ccc(COC2CCN(Cc3ccccc3)CC2)cc1-c1ccccc1C)C(=O)O [Example 807, N-[4-(1-benzylpiperidin-4-yloxymethyl)-2-(2-methylphenyl)benzoyl]methioninelithium salt]

Same assay, conditions: read-out: % inhibition at 1 × 10^-7 M

SMILES	inhibition at 0.1 µM
CSCC[C@H](NC(=O)c1ccc(COc2ccc(Oc3ccccc3)cc2)cc1-c1ccccc1C)C(=O)O [Example 795, N-[4-(4-phenoxyphenoxymethyl)-2-(2-methylphenyl)benzoyl]methionine lithium salt]	87%

Same assay, conditions: read-out: % inhibition at 1 × 10^-7 M; Table 3; 1 × 10^-7 M

SMILES	inhibition at 0.1 µM
CSCC[C@H](NC(=O)c1ccc(CSC2=NCCS2)cc1-c1ccccc1C)C(=O)O [Example 730]	96%
CSCC[C@H](NC(=O)c1ccc(CSc2nc3cc(C)ccc3[nH]2)cc1-c1ccccc1C)C(=O)O [Example 733]	60%
CSCC[C@H](NC(=O)c1ccc(CSc2nnc(N)s2)cc1-c1ccccc1C)C(=O)O [Example 734]	49%
CSCC[C@H](NC(=O)c1ccc(CSc2nnc[nH]2)cc1-c1ccccc1C)C(=O)O [Example 735]	96%
CSCC[C@H](NC(=O)c1ccc(CSc2ccc(F)cc2)cc1-c1ccccc1C)C(=O)O [Example 740]	94%
CSCC[C@H](NC(=O)c1ccc(CSc2nc(C)cc(C)n2)cc1-c1ccccc1C)C(=O)O [Example 743]	51%
CSCC[C@H](NC(=O)c1ccc(CSc2ncnc3[nH]ncc23)cc1-c1ccccc1C)C(=O)O [Example 746]	84%
CSCC[C@H](NC(=O)c1ccc(CSc2ncnc3[nH]cnc23)cc1-c1ccccc1C)C(=O)O [Example 747]	68%

Other lines, results leading:

inhibition at 0.1 µM	SMILES
84%	CSCC[C@H](NC(=O)c1ccc(CSc2nc3ccccc3[nH]2)cc1-c1ccccc1C)C(=O)O [Example 732]
83%	CSCC[C@H](NC(=O)c1ccc(CSc2ccccc2C(C)C)cc1-c1ccccc1C)C(=O)O [Example 739]
89%	CSCC[C@H](NC(=O)c1ccc(CSc2ccc(C)cc2C)cc1-c1ccccc1C)C(=O)O [Example 741]
93%	CSCC[C@H](NC(=O)c1ccc(CSc2nc3ccccc3c(=O)[nH]2)cc1-c1ccccc1C)C(=O)O [Example 745]
